Reference: patent US11549142B2, “CETP inhibitors for therapeutic use” (Hoffmann-La Roche Inc., priority 2013, dated 2023)
“And” between values parts separate entries of the source, which are not always exact repeats. Equal entries are not always repeated. “Also recorded” adds a separate entry of the source.

Test system: patients recently hospitalized for an Acute Coronary Syndrome (ACS)
Assay: dal-OUTCOMES phase III trial with pharmacogenomic (GWAS) analysis of cardiovascular events by ADCY9 genotype
Type: in vivo, human
Parameters: key to Predicted response: R: Responsive; PR: Partial Responsive; NR: Non Responsive
Method: The dalcetrapib mortality and morbidity trial (dal-OUTCOMES) was a double-blind, randomized, placebo-controlled, parallel group, multi-centre study in stable CHD patients recently hospitalized for acute coronary syndrome (ACS). The study was conducted to test the hypothesis that CETP inhibition will reduce the risk of recurrent cardiovascular events in patients with recent ACS by raising levels of HDL-C through CETP inhibition. Eligible patients entered a single-blind placebo run-in period of approximately 4 to 6 weeks to allow for patients to stabilize and for completion of planned revascularization procedures. At the end of the run-in period, eligible patients in stable condition were randomized in a 1:1 ratio to 600 mg of dalcetrapib or placebo on top of evidence-based medical care for ACS. Dalcetrapib is an inhibitor of cholesterol-ester transfer protein (CETP). […] The trial was interrupted in May 2012 by the DSMB on grounds of futility.
Dal-OUTCOMES trial (NC20971) was a double blind, randomized, placebo-controlled, parallel group, multi-center, phase III study to assess the safety and efficacy of the CETP inhibitor dalcetrapib in patients recently hospitalized for an Acute Coronary Syndrome (ACS). At time of the interim analysis the study included 15871 randomized patients, distributed over two treatment arms: placebo (7933 patients) and dalcetrapib (600 mg daily; 7938 patients). […] The dal-OUTCOMES study details can be found in G. Schwartz et al., N. Engl. J. Med. 367; 22, 2012.\
Whole genome analysis was performed in GLP-environment at the Beaulieu-Saucier Pharmacogenomics Centre. The Infinium® HumanOmni25Exome-8v1_A BeadChip (Illumina, San Diego, Calif.) including 2,567,845 genomic markers was used and processed according to the manufacturer's specifications. Approximately 200 ng of genomic DNA was whole-genome amplified, fragmented, and hybridized to locus-specific probes bound to the surface of each BeadChip. DNA was genotyped using a fluorescently labelled single base extension assay. BeadChips were scanned and analyzed using the Illumina® iScan Reader. Infinium® process controls were monitored and all results were within manufacturer's specifications. Scanned images were analyzed using Illumina's GenomeStudio® version 2011.1 with the GenTrain 2.0 cluster algorithm, using a No-Call threshold of 0.15, without manual cluster adjustment and using the manufacturer's Illumina® HumanOmni25Exome-8v1_A cluster file. […] Three genotyping files in PLINK format generated by GenomeStudio® were combined and transformed to binary PLINK format.
Genotyping completion rate for samples and SNPs was set to 98%. SNPs with genotyping plate bias (based on the 96 well plates used to dilute DNA samples) were flagged but not removed as the effect of genetic ancestry could not be excluded. Pairwise IBD was used to conduct close familial relationship checks. We flagged and removed all but one pair-member of related pairs and sample duplicates (IBS2*ratio>0.80) based on a selection of uncorrelated SNPs (r^2<0.1). The pairwise IBS matrix was used as a distance metric to identify cryptic relatedness among samples and sample outliers by multi-dimensional scaling (MDS). The first two MDS components of each subject were plotted including the genotypes of HapMap CEU, JPT-CHB, and YRI data (keeping only founder individuals). Outliers from the main Caucasian cluster were flagged and removed by k-nearest neighbour. (Supplementary FIG. 1) The scree plot and the cumulative explained variance were computed using the smartpca program of the EIGENSOFT suite (version 3.0). Options used were a numoutlieriter (maximum number of outlier removal iterations) of 0 (turned off) and altnormstyle (normalization formula) equal to NO. ^4 (Supplementary FIG. 2)
A statistical analysis plan was developed at the Beaulieu-Saucier Pharmacogenomics Centre and the final version approved prior to genotyping completion in October 2012. […]

How did the “event rate in the primary efficacy endpoint (cardiovascular events), dalcetrapib arm compared to the placebo arm” value (all patients, 600 mg daily) turn out when `CCC(CC)CC1(C(=O)Nc2ccccc2SC(=O)C(C)C)CCCCC1` [dalcetrapib, thioisobutyric acid S-(2-{[1-(2-ethyl-butyl)-cyclohexanecarbonyl]-amino}-phenyl) ester] was run?
The value was “lack of efficacy relative to statins alone; also recorded: did not show a significant reduction in cardiovascular events; also recorded: no evidence of reduction of the event rate”.

And the HDL-c (patients on treatment, dal-OUTCOMES)?
Its HDL-c is “marked increase”.

What about the “HR for events, additive genetic effect of one allele” value (rs1967309, dal-Outcomes treatment arm, Cox proportional hazards) of the same compound?
Its value is 0.65 (95% CI 0.55, 0.76).

What about the “HR (95% CI) for time to events, dalcetrapib treatment arm only, genotype comparison” value (shortened to “HR (95% CI) for time to events”) (rs1967309 AA vs GG) of the same compound?
The value was 0.40 (95% CI 0.28, 0.57) and 0.4 (0.28, 0.57).

What about the “HR (95% CI) for time to events” value (rs1967309 GA vs GG) of the same compound?
The value was 0.68 (95% CI 0.55, 0.84) and 0.68 (0.56, 0.84).

What about the Predicted response (rs1967309 genotype AA) of the same compound?
Its Predicted response is “R”.

What about the “HR for time to events, dalcetrapib treatment arm versus placebo arm” value (rs1967309 genotype GA) of the same compound?
The value was 0.94.

And the Predicted response (rs1967309 genotype GA)?
Its Predicted response is “PR”.

What about the “HR for time to events, dalcetrapib treatment arm versus placebo arm” value (rs1967309 genotype GG) of the same compound?
Its value is 1.27.

What about the Predicted response (rs1967309 genotype GG) of the same compound?
Its Predicted response is “NR”.

What about the “HR (95% CI) for time to events” value (rs2239310 AG vs AA) of the same compound?
The value was 0.71 (0.58,0.87).

What about the “HR (95% CI) for time to events” value (rs2239310 GG vs AA) of the same compound?
Its value is 0.43 (0.29, 0.63).

And the “HR for time to events, dalcetrapib treatment arm versus placebo arm” value (rs2239310 genotype AA)?
The value was 1.16.

And the Predicted response (rs2239310 genotype AA)?
Its Predicted response is “NR”.

And the “HR for time to events, dalcetrapib treatment arm versus placebo arm” value (rs2239310 genotype AG)?
The value was 0.96.

And the Predicted response (rs2239310 genotype AG)?
The Predicted response was “PR”.

And the “HR for time to events, dalcetrapib treatment arm versus placebo arm” value (rs2239310 genotype GG)?
Its value is 0.6.

What about the Predicted response (rs2239310 genotype GG) of the same compound?
Its Predicted response is “R”.

And the “HR (95% CI) for time to events” value (rs2283497 AA vs CC)?
Its value is 0.53 (0.37, 0.76).

What about the “HR (95% CI) for time to events” value (rs2283497 CA vs CC) of the same compound?
Its value is 0.83 (0.67, 1.02).

And the “HR for time to events, dalcetrapib treatment arm versus placebo arm” value (rs2283497 genotype AA)?
Its value is 0.57.

And the Predicted response (rs2283497 genotype AA)?
Its Predicted response is “R”.

What about the “HR for time to events, dalcetrapib treatment arm versus placebo arm” value (rs2283497 genotype CA) of the same compound?
The value was 0.99.

And the Predicted response (rs2283497 genotype CA)?
The Predicted response was “PR”.

What about the “HR for time to events, dalcetrapib treatment arm versus placebo arm” value (rs2283497 genotype CC) of the same compound?
Its value is 1.23.

And the Predicted response (rs2283497 genotype CC)?
The Predicted response was “NR”.

What about the “HR (95% CI) for time to events” value (rs2531967 AA vs GG) of the same compound?
The value was 0.5 (0.29, 0.86).

What about the “HR (95% CI) for time to events” value (rs2531967 GA vs GG) of the same compound?
Its value is 0.75 (0.61, 0.93).

What about the “HR for time to events, dalcetrapib treatment arm versus placebo arm” value (rs2531967 genotype AA) of the same compound?
The value was 0.67.

What about the Predicted response (rs2531967 genotype AA) of the same compound?
Its Predicted response is “R”.

What about the “HR for time to events, dalcetrapib treatment arm versus placebo arm” value (rs2531967 genotype GA) of the same compound?
Its value is 0.86.

And the Predicted response (rs2531967 genotype GA)?
Its Predicted response is “PR”.

What about the “HR for time to events, dalcetrapib treatment arm versus placebo arm” value (rs2531967 genotype GG) of the same compound?
The value was 1.12.

What about the Predicted response (rs2531967 genotype GG) of the same compound?
Its Predicted response is “NR”.

What about the “HR (95% CI) for time to events” value (rs3730119 AA vs GG) of the same compound?
The value was 0.49 (0.22, 1.1).

And the “HR (95% CI) for time to events” value (rs3730119 GA vs GG)?
The value was 0.78 (0.62, 0.99).

And the “HR for time to events, dalcetrapib treatment arm versus placebo arm” value (rs3730119 genotype AA)?
Its value is 0.48.

What about the Predicted response (rs3730119 genotype AA) of the same compound?
Its Predicted response is “R”.

What about the “HR for time to events, dalcetrapib treatment arm versus placebo arm” value (rs3730119 genotype GA) of the same compound?
Its value is 0.86.

What about the Predicted response (rs3730119 genotype GA) of the same compound?
The Predicted response was “PR”.

What about the “HR for time to events, dalcetrapib treatment arm versus placebo arm” value (rs3730119 genotype GG) of the same compound?
The value was 1.08.

And the Predicted response (rs3730119 genotype GG)?
The Predicted response was “NR”.

What about the “HR (95% CI) for time to events” value (rs4786454 AA vs GG) of the same compound?
Its value is 0.37 (0.15, 0.9).

What about the “HR (95% CI) for time to events” value (rs4786454 GA vs GG) of the same compound?
The value was 0.69 (0.54, 0.87).

What about the “HR for time to events, dalcetrapib treatment arm versus placebo arm” value (rs4786454 genotype AA) of the same compound?
The value was 0.52.

And the Predicted response (rs4786454 genotype AA)?
Its Predicted response is “R”.

And the “HR for time to events, dalcetrapib treatment arm versus placebo arm” value (rs4786454 genotype GA)?
The value was 0.89.

And the Predicted response (rs4786454 genotype GA)?
Its Predicted response is “PR”.

And the “HR for time to events, dalcetrapib treatment arm versus placebo arm” value (rs4786454 genotype GG)?
Its value is 1.06.

And the Predicted response (rs4786454 genotype GG)?
The Predicted response was “NR”.

What about the “HR (95% CI) for time to events” value (rs8049452 AA vs GG) of the same compound?
Its value is 1.98 (1.51, 2.61).

What about the “HR (95% CI) for time to events” value (rs8049452 GA vs GG) of the same compound?
The value was 1.26 (0.99, 1.6).

And the “HR for time to events, dalcetrapib treatment arm versus placebo arm” value (rs8049452 genotype AA)?
The value was 1.55.

And the Predicted response (rs8049452 genotype AA)?
The Predicted response was “NR”.

And the “HR for time to events, dalcetrapib treatment arm versus placebo arm” value (rs8049452 genotype GA)?
The value was 0.97.

And the Predicted response (rs8049452 genotype GA)?
The Predicted response was “PR”.

What about the “HR for time to events, dalcetrapib treatment arm versus placebo arm” value (rs8049452 genotype GG) of the same compound?
Its value is 0.78.

And the Predicted response (rs8049452 genotype GG)?
The Predicted response was “R”.

What about the “HR (95% CI) for time to events” value (rs8061182 AG vs AA) of the same compound?
Its value is 1.23 (0.98, 1.56).

And the “HR (95% CI) for time to events” value (rs8061182 GG vs AA)?
The value was 1.81 (1.37, 2.39).

And the “HR for time to events, dalcetrapib treatment arm versus placebo arm” value (rs8061182 genotype AA)?
Its value is 0.79.
